From patent US20190083398A1 (ZheJiang Chinese Medical University, priority 2016, published 2019)

Test: Solubility (descriptive)
Assay type: physicochemical
Details: 0.9% NaCl release medium
Description: The samples at each sampling point are filtered through a 0.45 μm microporous film and injected for analysis.

solubility in the release medium: very low
SMILES: CC(C)[C@@H](C)/C=C/[C@@H](C)[C@H]1CC[C@H]2C3=CC=C4C[C@@H](O)CC[C@]4(C)[C@H]3CC[C@]12C [ergosterol]
